Data reported in ChEMBL document CHEMBL3885861, “Open TG-GATES”.

Organism: Rattus norvegicus
Assay: Open TG-GATES - Regimen: Single
Assay type: toxicity, organism-based, Sprague-Dawley
Design: regimen Single, gender Male, age 6 weeks
Conditions: in vivo, iv, route intravenous injection; for Ca / Cl / DBIL / GLC / IP / K / LDH / Na / PL / RALB / TBIL / TC / TG / TP / gamma-GTP / A/G / ALP / ALT / AST / BUN / CRE: tissue Plasma; for APTT / Fbg / Hb / Ht / MCH / MCHC / MCV / PT / Plat / RBC / Ret / WBC: tissue Blood; for KIDNEY_L / KIDNEY_R / KIDNEY_TOTAL: tissue Kidney; for LIVER: tissue Liver
[1] = 3 mg/kg, 24 h, dose level Middle
[2] = 10 mg/kg, 24 h, dose level High

Question: What does the source list for C[C@@H]1C[C@@H]([C@H](O)CC2CC(=O)NC(=O)C2)C(=O)[C@@H](C)C1 [CYCLOHEXIMIDE]?
Answer: Ca [1]: 9.8 mg/dL; Cl [1]: 107.6 meq/L; DBIL [1]: 0.004 mg/dL; GLC [1]: 177 mg/dL; IP [1]: 7.3 mg/dL; K [1]: 4.4 meq/L; LDH [1]: 231 IU/L; Na [1]: 138.8 meq/L; PL [1]: 74 mg/dL; RALB [1]: 2.4 g/dL; TBIL [1]: 0.028 mg/dL; TC [1]: 38.4 mg/dL; TG [1]: 80 mg/dL; TP [1]: 4.2 g/dL; gamma-GTP [1]: 1.6 IU/L; TERMINAL_BW (10 mg/kg, 3 h, dose level High): 216.7 g; APTT (10 mg/kg, 3 h, dose level High): 24.3 s; Fbg (10 mg/kg, 3 h, dose level High): 301 mg/dL; Hb (10 mg/kg, 3 h, dose level High): 15.2 g/dL; Ht (10 mg/kg, 3 h, dose level High): 47.2%; MCH (10 mg/kg, 3 h, dose level High): 21 pg; MCHC (10 mg/kg, 3 h, dose level High): 32.3%; MCV (10 mg/kg, 3 h, dose level High): 65.2 fL; PT (10 mg/kg, 3 h, dose level High): 18.5 s; Plat (10 mg/kg, 3 h, dose level High): 133.4 x10_4/uL; RBC (10 mg/kg, 3 h, dose level High): 726.4 x10_4/ul; Ret (10 mg/kg, 3 h, dose level High): 9.6%; WBC (10 mg/kg, 3 h, dose level High): 375 x10_2/uL; KIDNEY_L (10 mg/kg, 3 h, dose level High): 1 g; KIDNEY_R (10 mg/kg, 3 h, dose level High): 1 g; KIDNEY_TOTAL (10 mg/kg, 3 h, dose level High): 2 g; LIVER (10 mg/kg, 3 h, dose level High): 9.2 g; A/G (10 mg/kg, 3 h, dose level High): 1.3; ALP (10 mg/kg, 3 h, dose level High): 1467 IU/L; ALT (10 mg/kg, 3 h, dose level High): 74 IU/L; AST (10 mg/kg, 3 h, dose level High): 314.6 IU/L; BUN (10 mg/kg, 3 h, dose level High): 41.4 mg/dL; CRE (10 mg/kg, 3 h, dose level High): 0.1 mg/dL; Ca (10 mg/kg, 3 h, dose level High): 9.8 mg/dL; Cl (10 mg/kg, 3 h, dose level High): 109 meq/L; DBIL (10 mg/kg, 3 h, dose level High): 0.006 mg/dL; GLC (10 mg/kg, 3 h, dose level High): 334.2 mg/dL; IP (10 mg/kg, 3 h, dose level High): 13.4 mg/dL; K (10 mg/kg, 3 h, dose level High): 5.1 meq/L; LDH (10 mg/kg, 3 h, dose level High): 1625.2 IU/L; Na (10 mg/kg, 3 h, dose level High): 140 meq/L; PL (10 mg/kg, 3 h, dose level High): 82.4 mg/dL; RALB (10 mg/kg, 3 h, dose level High): 3 g/dL; TBIL (10 mg/kg, 3 h, dose level High): 0.014 mg/dL; TC (10 mg/kg, 3 h, dose level High): 63.8 mg/dL; TG (10 mg/kg, 3 h, dose level High): 20 mg/dL; TP (10 mg/kg, 3 h, dose level High): 5.3 g/dL; gamma-GTP (10 mg/kg, 3 h, dose level High): 3.2 IU/L; TERMINAL_BW (10 mg/kg, 6 h, dose level High): 213.8 g; APTT (10 mg/kg, 6 h, dose level High): 31.7 s; Fbg (10 mg/kg, 6 h, dose level High): 270.2 mg/dL; Hb (10 mg/kg, 6 h, dose level High): 17.7 g/dL; Ht (10 mg/kg, 6 h, dose level High): 54.8%; MCH (10 mg/kg, 6 h, dose level High): 21.6 pg; MCHC (10 mg/kg, 6 h, dose level High): 32.3%; MCV (10 mg/kg, 6 h, dose level High): 66.8 fL; PT (10 mg/kg, 6 h, dose level High): 29.8 s; Plat (10 mg/kg, 6 h, dose level High): 131.6 x10_4/uL; RBC (10 mg/kg, 6 h, dose level High): 818.8 x10_4/ul; Ret (10 mg/kg, 6 h, dose level High): 8.7%; WBC (10 mg/kg, 6 h, dose level High): 396.9 x10_2/uL; KIDNEY_L (10 mg/kg, 6 h, dose level High): 1 g; KIDNEY_R (10 mg/kg, 6 h, dose level High): 1 g; KIDNEY_TOTAL (10 mg/kg, 6 h, dose level High): 2 g; LIVER (10 mg/kg, 6 h, dose level High): 7.9 g; A/G (10 mg/kg, 6 h, dose level High): 1.1; ALP (10 mg/kg, 6 h, dose level High): 1518.4 IU/L; ALT (10 mg/kg, 6 h, dose level High): 76.2 IU/L; AST (10 mg/kg, 6 h, dose level High): 315.8 IU/L; BUN (10 mg/kg, 6 h, dose level High): 69.4 mg/dL; CRE (10 mg/kg, 6 h, dose level High): 0.2 mg/dL; Ca (10 mg/kg, 6 h, dose level High): 7.2 mg/dL; Cl (10 mg/kg, 6 h, dose level High): 108.8 meq/L; DBIL (10 mg/kg, 6 h, dose level High): 0.002 mg/dL; GLC (10 mg/kg, 6 h, dose level High): 250.6 mg/dL; IP (10 mg/kg, 6 h, dose level High): 16.5 mg/dL; K (10 mg/kg, 6 h, dose level High): 6 meq/L; LDH (10 mg/kg, 6 h, dose level High): 1124 IU/L; Na (10 mg/kg, 6 h, dose level High): 138.8 meq/L; PL (10 mg/kg, 6 h, dose level High): 65 mg/dL; RALB (10 mg/kg, 6 h, dose level High): 2.8 g/dL; TBIL (10 mg/kg, 6 h, dose level High): 0.002 mg/dL; TC (10 mg/kg, 6 h, dose level High): 39 mg/dL; TG (10 mg/kg, 6 h, dose level High): 20.2 mg/dL; TP (10 mg/kg, 6 h, dose level High): 5.3 g/dL; gamma-GTP (10 mg/kg, 6 h, dose level High): 3.8 IU/L; TERMINAL_BW (10 mg/kg, 9 h, dose level High): 206.3 g; APTT (10 mg/kg, 9 h, dose level High): 47.2 s; Fbg (10 mg/kg, 9 h, dose level High): 228.4 mg/dL; Hb (10 mg/kg, 9 h, dose level High): 18.2 g/dL; Ht (10 mg/kg, 9 h, dose level High): 56.4%; MCH (10 mg/kg, 9 h, dose level High): 21.7 pg; MCHC (10 mg/kg, 9 h, dose level High): 32.3%; MCV (10 mg/kg, 9 h, dose level High): 67.4 fL; PT (10 mg/kg, 9 h, dose level High): 40.1 s; Plat (10 mg/kg, 9 h, dose level High): 112.8 x10_4/uL; RBC (10 mg/kg, 9 h, dose level High): 836.4 x10_4/ul; Ret (10 mg/kg, 9 h, dose level High): 8.9%; WBC (10 mg/kg, 9 h, dose level High): 386.2 x10_2/uL; KIDNEY_L (10 mg/kg, 9 h, dose level High): 1.1 g; KIDNEY_R (10 mg/kg, 9 h, dose level High): 1.1 g; KIDNEY_TOTAL (10 mg/kg, 9 h, dose level High): 2.1 g; LIVER (10 mg/kg, 9 h, dose level High): 7.9 g; A/G (10 mg/kg, 9 h, dose level High): 1.4; ALP (10 mg/kg, 9 h, dose level High): 1345.4 IU/L; ALT (10 mg/kg, 9 h, dose level High): 87.8 IU/L; AST (10 mg/kg, 9 h, dose level High): 291.8 IU/L; BUN (10 mg/kg, 9 h, dose level High): 94.4 mg/dL; CRE (10 mg/kg, 9 h, dose level High): 0.3 mg/dL; Ca (10 mg/kg, 9 h, dose level High): 6.6 mg/dL; Cl (10 mg/kg, 9 h, dose level High): 109 meq/L; DBIL (10 mg/kg, 9 h, dose level High): 0.0125 mg/dL; GLC (10 mg/kg, 9 h, dose level High): 215.2 mg/dL; IP (10 mg/kg, 9 h, dose level High): 17.4 mg/dL; K (10 mg/kg, 9 h, dose level High): 6.6 meq/L; LDH (10 mg/kg, 9 h, dose level High): 1399 IU/L; Na (10 mg/kg, 9 h, dose level High): 136 meq/L; PL (10 mg/kg, 9 h, dose level High): 69.6 mg/dL; RALB (10 mg/kg, 9 h, dose level High): 2.9 g/dL; TBIL (10 mg/kg, 9 h, dose level High): 0.01 mg/dL; TC (10 mg/kg, 9 h, dose level High): 34.4 mg/dL; TG (10 mg/kg, 9 h, dose level High): 61.4 mg/dL; TP (10 mg/kg, 9 h, dose level High): 5.2 g/dL; gamma-GTP (10 mg/kg, 9 h, dose level High): 3 IU/L; TERMINAL_BW [2]: 198.6 g; APTT [2]: 70.4 s; Fbg [2]: 149.5 mg/dL; Hb [2]: 16.4 g/dL; Ht [2]: 49.4%; MCH [2]: 20.9 pg; MCHC [2]: 33.3%; MCV [2]: 62.8 fL; PT [2]: 35.1 s; Plat [2]: 81.8 x10_4/uL; RBC [2]: 784.5 x10_4/ul; Ret [2]: 7.3%; WBC [2]: 413.2 x10_2/uL; KIDNEY_L [2]: 1 g; KIDNEY_R [2]: 1 g; KIDNEY_TOTAL [2]: 2 g; LIVER [2]: 8 g; A/G [2]: 1.3; ALP [2]: 903.5 IU/L; ALT [2]: 57.5 IU/L; AST [2]: 192 IU/L; BUN [2]: 106 mg/dL; CRE [2]: 0.3 mg/dL; Ca [2]: 7 mg/dL; Cl [2]: 112 meq/L; DBIL [2]: 0.02 mg/dL; GLC [2]: 134 mg/dL; IP [2]: 13.4 mg/dL; K [2]: 5.3 meq/L; LDH [2]: 1196.5 IU/L; Na [2]: 141.5 meq/L; PL [2]: 80 mg/dL; RALB [2]: 2.5 g/dL; TBIL [2]: 0.045 mg/dL; TC [2]: 59 mg/dL; TG [2]: 66.5 mg/dL; TP [2]: 4.5 g/dL; gamma-GTP [2]: 4 IU/L
